Read-outs that look alike come from different tables or passages of the source.
Legend:
Format in all cases: cell-based
[1] = test system: Mouse G3 MB Myc1 neurospheres; test: 72 h dose response, CellTiter-Glo, mouse G3 MB neurospheres; conditions: 72 hr treatment, 384-well; for EC50: read-out: G3-MB EC50
Procedure: (§1) In the Discovery Phase, the initial studies included the screen of a library of 9 compounds against epigenetic regulators at a single concentration and a dose-response on G3 MB, EP, and CPC tumor cells, as well as HEPG2 and BJ (Fig. 1). The library and dose response studies are described in the Supplementary Material.
(§2) Briefly, cells (see Supplementary Table S2 for cell identity) were plated in 384-well plates (Corning) in 30 µL of supplemented neurobasal medium by using an automated plate filler (Wellmate, Matrix). After 24 hr, 28 nL of compound was transferred via pin tool, resulting in a final drug concentration of approximately 4 nM to 10 µM. After 72 hr of treatment, CellTiter-Glo reagent (Promega) was added, and the luminescence signal was measured using an automated Envision plate reader (Perkin-Elmer). Luminescence data were normalized by log10-transformation prior to calculating the percentage of inhibition using the following equation: 100 × (negative control mean − compound value)/(negative control mean − positive control mean). Our negative control represents cells treated with 0.1% DMSO with 0% inhibition. Cells treated with 35 µM cycloheximide (G3 MB tumor spheres) or 10 µM panobinostat (EP and CPC cells) were used as positive controls with 100% inhibition. The response of cells to the compounds were normalized to that of the positive controls present in each plate screened, shown in the Y axis of the dose-response curve. […] Unless otherwise reported, the y-axis for each dose response curve in the figures was independently normalized to the range from 0 to 1 and therefore reported as ‘relative growth inhibition’. High through put assay data were analyzed by using our in-house Robust Interpretation of Screening Experiments (RISE) application that was written in Pipeline Pilot (Accelrys, v. 8.5) and R (R Development Core Team).

mouse EP neurospheres = test: 72 h dose response, CellTiter-Glo, mouse EP neurospheres; conditions: 72 hr treatment, 384-well; for EC50: read-out: EP EC50
Procedure: as §1, §2

[2] = test system: mouse CPC neurospheres (CPC300); test: 72 h dose response, CellTiter-Glo, mouse CPC neurospheres; conditions: 72 hr treatment, 384-well; for EC50: read-out: CPC300 EC50
Procedure: as §1, §2

Row | Structure (SMILES) | G3-MB EC50 [1] | EC50 (mouse EP neurospheres; Mus musculus) [nM] | EC50 ([2]; Mus musculus) [nM] | EC50 (mouse EP neurospheres) [nM] | EC50 [2] [nM] | EC50 [1] [nM] | also measured
1 | O=C(CCCCCCC(=O)Nc1ccccc1)NO [SAHA (Vorinostat), Vorinostat] | Inactive |  |  |  |  |  | 
2 | Nc1ncn([C@H]2C[C@H](O)[C@@H](CO)O2)c(=O)n1 [Decitabine] |  | 500 | 6700 |  |  |  | EC50 ([1]; Mus musculus): 960 nM
3 | Nc1ncn([C@@H]2O[C@H](CO)[C@@H](O)[C@H]2O)c(=O)n1 [5-Azacytidine] | Inactive | 5300 | 1080 |  |  |  | 
4 | CCNC(=O)C[C@@H]1N=C(c2ccc(Cl)cc2)c2cc(OC)ccc2-n2c(C)nnc21 [I-BET] |  |  |  | 4100 | > 5500 | 900 | 
5 | Nc1nccc2c1ncn2C1C=C(CO)C(O)C1O (stereo not shown) [3-Deazaneplanocin A] |  | 110 | 310 |  |  |  | EC50 ([1]; Mus musculus): 360 nM
6 | CC(/C=C/C(=O)NO)=C\[C@@H](C)C(=O)c1ccc(N(C)C)cc1 [Trichostatin A] |  |  |  | 400 | 2100 | 100 | 
7 | Cc1sc2c(c1C)C(c1ccc(Cl)cc1)=N[C@@H](CC(=O)OC(C)(C)C)c1nnc(C)n1-2 [JQ1] |  |  |  | 1700 | > 5600 | 700 | 
8 | O=c1ncccn1[C@@H]1O[C@H](CO)[C@@H](O)[C@H]1O [Zebularin, Zebularine] | Inactive |  |  |  |  |  | EP EC50 (mouse EP neurospheres): Inactive; CPC300 EC50 [2]: Inactive
